This assay has as its target CBP (Homo sapiens (Human), UniProt Q92793). The assay can be described thus: CBP TR-FRET binding assay.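 Also: displacement of a biotinylated small-molecule ligand from purified recombinant CBP read by TR-FRET, DMSO-only wells as control, IC50 from nonlinear curve fit.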 Conditions: His/Flag tagged CBP 4 nM, biotin-ligand 60 nM; read-out: CBP HTRF IC50. A general note: Time-resolved FRET reads energy transfer from a long-lived donor to a nearby acceptor.

Chain of CBP (Q92793 whole entry): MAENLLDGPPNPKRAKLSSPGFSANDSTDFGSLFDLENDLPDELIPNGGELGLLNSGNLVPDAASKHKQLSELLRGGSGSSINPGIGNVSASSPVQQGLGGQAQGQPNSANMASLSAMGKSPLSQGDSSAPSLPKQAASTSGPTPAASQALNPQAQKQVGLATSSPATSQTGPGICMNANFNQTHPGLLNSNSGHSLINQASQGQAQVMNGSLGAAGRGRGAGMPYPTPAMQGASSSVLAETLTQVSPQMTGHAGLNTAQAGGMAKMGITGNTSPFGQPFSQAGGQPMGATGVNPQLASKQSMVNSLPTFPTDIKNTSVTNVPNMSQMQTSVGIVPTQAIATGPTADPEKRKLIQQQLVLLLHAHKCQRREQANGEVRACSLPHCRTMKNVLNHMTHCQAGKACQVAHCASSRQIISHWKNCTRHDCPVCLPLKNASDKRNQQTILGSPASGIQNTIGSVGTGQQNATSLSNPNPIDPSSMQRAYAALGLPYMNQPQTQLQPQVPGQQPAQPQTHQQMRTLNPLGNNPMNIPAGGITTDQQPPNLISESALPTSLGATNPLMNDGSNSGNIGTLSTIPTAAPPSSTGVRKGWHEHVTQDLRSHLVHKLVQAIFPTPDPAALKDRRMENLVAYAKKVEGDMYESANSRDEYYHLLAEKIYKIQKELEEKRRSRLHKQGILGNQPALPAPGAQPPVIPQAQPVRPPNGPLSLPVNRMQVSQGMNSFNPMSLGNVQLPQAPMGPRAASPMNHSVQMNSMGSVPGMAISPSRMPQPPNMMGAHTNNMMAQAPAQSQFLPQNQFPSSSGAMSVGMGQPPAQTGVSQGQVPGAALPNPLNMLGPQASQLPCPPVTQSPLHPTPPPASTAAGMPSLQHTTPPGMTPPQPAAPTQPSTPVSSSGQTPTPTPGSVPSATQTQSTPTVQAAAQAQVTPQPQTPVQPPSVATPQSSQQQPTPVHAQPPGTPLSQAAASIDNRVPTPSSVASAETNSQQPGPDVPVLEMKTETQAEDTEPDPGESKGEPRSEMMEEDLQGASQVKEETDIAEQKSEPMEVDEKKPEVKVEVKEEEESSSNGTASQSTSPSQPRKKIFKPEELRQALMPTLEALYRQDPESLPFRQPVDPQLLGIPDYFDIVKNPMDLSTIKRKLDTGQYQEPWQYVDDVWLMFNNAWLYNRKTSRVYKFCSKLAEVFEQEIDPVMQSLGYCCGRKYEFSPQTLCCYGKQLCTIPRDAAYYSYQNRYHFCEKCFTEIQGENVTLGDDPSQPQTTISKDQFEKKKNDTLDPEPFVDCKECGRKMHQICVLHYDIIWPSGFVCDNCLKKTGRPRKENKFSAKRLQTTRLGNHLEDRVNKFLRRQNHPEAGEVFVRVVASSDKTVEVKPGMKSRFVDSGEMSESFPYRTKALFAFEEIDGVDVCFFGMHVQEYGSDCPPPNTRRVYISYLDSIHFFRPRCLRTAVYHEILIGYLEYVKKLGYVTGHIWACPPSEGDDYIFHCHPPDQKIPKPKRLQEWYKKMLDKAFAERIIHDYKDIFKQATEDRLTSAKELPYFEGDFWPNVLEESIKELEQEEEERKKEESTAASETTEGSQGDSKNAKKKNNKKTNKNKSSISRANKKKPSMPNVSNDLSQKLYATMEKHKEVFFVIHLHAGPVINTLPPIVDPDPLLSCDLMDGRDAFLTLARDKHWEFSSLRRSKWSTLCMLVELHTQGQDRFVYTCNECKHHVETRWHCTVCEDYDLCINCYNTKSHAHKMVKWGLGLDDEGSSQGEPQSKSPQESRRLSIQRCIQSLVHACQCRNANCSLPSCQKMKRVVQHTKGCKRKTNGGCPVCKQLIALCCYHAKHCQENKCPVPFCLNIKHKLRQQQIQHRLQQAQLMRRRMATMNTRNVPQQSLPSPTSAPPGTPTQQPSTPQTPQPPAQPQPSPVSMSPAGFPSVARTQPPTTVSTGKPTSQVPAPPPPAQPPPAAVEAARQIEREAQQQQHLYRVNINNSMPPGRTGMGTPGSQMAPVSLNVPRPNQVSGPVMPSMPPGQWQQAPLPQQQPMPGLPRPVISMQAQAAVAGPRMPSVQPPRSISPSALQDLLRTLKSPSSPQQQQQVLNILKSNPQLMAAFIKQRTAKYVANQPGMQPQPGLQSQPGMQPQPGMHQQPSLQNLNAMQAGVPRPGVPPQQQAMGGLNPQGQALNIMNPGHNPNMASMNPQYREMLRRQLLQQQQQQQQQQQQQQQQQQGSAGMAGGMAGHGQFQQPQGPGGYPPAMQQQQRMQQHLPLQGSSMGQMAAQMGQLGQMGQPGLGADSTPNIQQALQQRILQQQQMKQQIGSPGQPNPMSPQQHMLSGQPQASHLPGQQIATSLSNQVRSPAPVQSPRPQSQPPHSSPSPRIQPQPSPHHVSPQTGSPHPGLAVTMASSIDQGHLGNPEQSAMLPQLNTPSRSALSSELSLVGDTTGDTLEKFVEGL
Description: IC50 Measurements for Inhibitors Using CBP TR FRET Binding Assay
His/Flag epitope tagged CBP was cloned, expressed, and purified to homogeneity. CBP binding and inhibition was assessed by monitoring the engagement of a biotinylated small molecule compound with the target using the TR-FRET assay technology (Perkin-Elmer). Specifically, in a 384 well ProxiPlate CBP (4 nM final) was combined with biotin-ligand (60 nM final) in 50 mM HEPES (pH 7.5), 50 mM NaCl, 1 mM TCEP, 0.01% (w/v) BSA, and 0.008% (w/v) Brij-35 either in the presence of DMSO (final 0.2% DMSO) or compound dilution series in DMSO. […] After twenty minutes of equilibration, the plates were read on an Envision instrument and IC50S calculated using a four parameter non-linear curve fit.

Consider `CNC(=O)C1CCc2c(c(N3CCCc4cc(-c5cnn(C)c5)c(C(F)F)cc43)nn2C2CCOCC2)C1` (stereo not shown) [Example 126, 3-(7-(difluoromethyl)-6-(1-methyl-1H-pyrazol-4-yl)-3,4-dihydroquinolin-1(2H)-yl)-N-methyl-1-(tetrahydro-2H-pyran-4-yl)-4,5,6,7-tetrahydro-1H-indazole-5-carboxamide], for which the IC50 was 184 nM.

Regarding `CNC(=O)c1cccc2oc(-c3cccc4cc(-c5cnn(C)c5)ncc34)nc12` [Example 121, N-methyl-2-(3-(1-methyl-1H-pyrazol-4-yl)isoquinolin-8-yl)benzo[d]oxazole-4-carboxamide], the half-inhibitory concentration (IC50) was found to be 274 nM.

`CNc1cc(N2CCCc3cc(-c4cnn(C)c4)c(C(F)F)cc32)cc2c1n(C)c(=O)n2C` [Example 42]: the half-inhibitory concentration (IC50) stood at 19 nM.

For `CNC(=O)N1CCOc2ccc(-c3cccc4ncccc34)cc2C1` [Example 6], the IC50 was 362 nM.

As to `Cn1cc(-c2ccc3c(c2)CCCN3c2cnc3[nH]cc(-c4cnn(C)c4)c3n2)cn1` [Example 75, 6-(1-methyl-1H-pyrazol-4-yl)-1-(7-(1-methyl-1H-pyrazol-4-yl)-5H-pyrrolo[2,3-b]pyrazin-2-yl)-1,2,3,4-tetrahydroquinoline], the IC50 was 244 nM.

Turning to `C[C@H]1Nc2c(cccc2N2CCCc3cc(-c4cnn(C)c4)ccc32)NC1=O` [Example 82, (R)-3-methyl-5-(6-(1-methyl-1H-pyrazol-4-yl)-3,4-dihydroquinolin-1(2H)-yl)-3,4-dihydroquinoxalin-2(1H)-one], the IC50 came to 325 nM.

For the compound `CC1C(=O)N(C)c2cc(N3CCCc4cc(-c5cnn(C)c5)c(C(F)F)cc43)ccc21` (stereo in doubt) [Example 92, (R)-6-[7-(difluoromethyl)-6-(1-methylpyrazol-4-yl)-3,4-dihydro-2H-quinolin-1-yl]-1,3-dimethyl-indolin-2-one], the IC50 amounted to 42 nM.

For the compound `CNC(=O)N1CCOc2ccc(-c3cccc4cnn(C)c34)cc2C1` [Example 8], the half-inhibitory concentration (IC50) turned out to be 394 nM.

Take `CC(=O)N1CCc2c(cc(-c3cccc4cc(-c5cnn(C)c5)ncc34)c(=O)n2C)C1` [Example 88, 6-acetyl-1-methyl-3-[3-(1-methylpyrazol-4-yl)-8-isoquinolyl]-7,8-dihydro-5H-1,6-naphthyridin-2-one]: the 50% inhibitory concentration (IC50) was determined as 258 nM.

As for `CNC(=O)N1CCOc2ccc(-c3c(F)ccc4[nH]ccc34)cc2C1` [Example 12], the half-inhibitory concentration (IC50) came to 59 nM.

Turning to `CNC(=O)c1ccc2c(n1)c(N1CCCc3cc(-c4cnn(C)c4)c(C(F)F)cc31)nn2C1CCOCC1` [Example 125, 3-(7-(difluoromethyl)-6-(1-methyl-1H-pyrazol-4-yl)-3,4-dihydroquinolin-1(2H)-yl)-N-methyl-1-(tetrahydro-2H-pyran-4-yl)-1H-pyrazolo[4,3-b]pyridine-5-carboxamide], the IC50 came out at 2 nM.

`CNC(=O)c1cn(C)c2cnc(N3CCCc4cc(-c5cnn(C)c5)c(C(F)F)cc43)nc12` [Example 61]: the 50% inhibitory concentration (IC50) turned out to be 26 nM.

With `CNC(=O)N1CCOc2ccc(-c3cccc4cn[nH]c34)cc2C1` [Example 15], the IC50 came to 391 nM.

`CNC(=O)N1CCOc2ccc(-c3nccc4ccccc34)cc2C1` [Example 1, 7-(isoquinolin-1-yl)-N-methyl-2,3-dihydrobenzo[f][1,4]oxazepine-4(5H)-carboxamide]: the IC50 was 187 nM.

Consider `CNC(=O)c1cnc2ccc(N3CCCc4cc(-c5cnn(C)c5)c(C(F)F)cc43)nn12` [Example 72, 6-(7-(difluoromethyl)-6-(1-methyl-1H-pyrazol-4-yl)-3,4-dihydroquinolin-1(2H)-yl)-N-methylimidazo[1,2-b]pyridazine-3-carboxamide], for which the IC50 is 110 nM.

Consider `CNC(=O)N1CCOc2ccc(-c3cc(C)ccc3C)cc2C1` [Example 7], for which the half-inhibitory concentration (IC50) is 273 nM.

Regarding `Cn1cc(-c2cc3c(cc2C(F)F)N(c2ccc4c(n2)n(C)c(=O)n4C)CCC3)cn1` [Example 26], the IC50 amounted to 2280 nM.

As to `CNC(=O)N1CCOc2ccc(-c3ccc4[nH]ccc4c3)cc2C1` [Example 13], the half-inhibitory concentration (IC50) is 267 nM.

For `CCn1c(=O)n(C)c2cc(N3CCCc4cc(-c5cnn(C)c5)c(C(F)F)cc43)ccc21` [Example 31, 5-[7-(difluoromethyl)-6-(1-methylpyrazol-4-yl)-3,4-dihydro-2H-quinolin-1-yl]-1-ethyl-3-methyl-benzimidazol-2-one], the concentration for half-maximal inhibition (IC50) turned out to be 172 nM.

As to `CC1C(=O)N(C)c2cc(N3CCCc4cc(-c5cnn(C)c5)c(C(F)F)cc43)ccc21` (stereo in doubt) [Example 93, (S)-6-[7-(difluoromethyl)-6-(1-methylpyrazol-4-yl)-3,4-dihydro-2H-quinolin-1-yl]-1,3-dimethyl-indolin-2-one], the IC50 worked out at 95 nM.

Consider `CNC(=O)c1cn(C)c2ccc(-c3cccc4cc(-c5cnn(C)c5)ncc34)cc12` [Example 49], for which the concentration for half-maximal inhibition (IC50) stood at 22 nM.

For `Cn1cc(-c2cc3c(cc2C(F)F)N(c2cc4c(cn2)n(C)c(=O)n4C)CCC3)cn1` [Example 24], the concentration for half-maximal inhibition (IC50) was determined as 106 nM.

In the case of `Cn1cc(-c2ccc3c(c2)CCCN3c2ccc3sc(=O)n(C)c3c2)cn1` [Example 23], the half-maximal inhibitory concentration (IC50) is 317 nM.

In the case of `CCn1cc(C(=O)NC)c2cc(N3CCCc4cc(-c5cnn(C)c5)c(C(F)F)cc43)ccc21` [Example 51], the half-maximal inhibitory concentration (IC50) worked out at 27 nM.

Turning to `Cn1cc(-c2cc3c(cc2C(F)F)N(c2cc(C4CC4)c4c(c2)n(C)c(=O)n4C)CCC3)cn1` [Example 38], the IC50 came out at 16 nM.

On to `CNC(=O)Nc1cccc(N2CCCc3cc(-c4cnn(C)c4)c(C(F)F)cc32)n1` [Example 122, 1-(6-(7-(difluoromethyl)-6-(1-methyl-1H-pyrazol-4-yl)-3,4-dihydroquinolin-1(2H)-yl)pyridin-2-yl)-3-methylurea], for which the IC50 was determined as 88 nM.

`CNC(=O)N1CCN(C)c2ccc(-c3ccccc3C)cc2C1` [Example 85, N,1-dimethyl-7-(o-tolyl)-3,5-dihydro-2H-1,4-benzodiazepine-4-carboxamide]: the IC50 is 450 nM.

For `CNC(=O)c1n[nH]c2ccc(N3CCCc4cc(-c5cnn(C)c5)c(C(F)F)cc43)nc12` [Example 71], the IC50 was found to be 187 nM.

As to `CNC(=O)c1c[nH]c2cnc(N3CCCc4cc(-c5cnn(C)c5)c(C(F)F)cc43)nc12` [Example 70], the IC50 stood at 18 nM.

For `COC(=O)c1ccc2nccc(N3CCCc4cc(-c5cnn(C)c5)ccc43)c2c1` [Example 28], the IC50 came to 199 nM.

Consider `CNC(=O)N1CCOc2ccc(-c3ccnc4ccccc34)cc2C1` [Example 4], for which the 50% inhibitory concentration (IC50) stood at 193 nM.

As to `CN1C(=O)C(=O)c2ccc(N3CCCc4cc(-c5cnn(C)c5)c(C(F)F)cc43)cc21` [Example 89, 6-[7-(difluoromethyl)-6-(1-methylpyrazol-4-yl)-3,4-dihydro-2H-quinolin-1-yl]-1-methyl-indoline-2,3-dione], the IC50 was 78 nM.

Turning to `CCn1c(=O)n(C)c2ccc(N3CCCc4cc(-c5cnn(C)c5)c(C(F)F)cc43)cc21` [Example 32], the concentration for half-maximal inhibition (IC50) came to 48 nM.

On to `CNC(=O)c1ccc2nccc(N3CCCc4cc(-c5cnn(C)c5)c(C(F)F)cc43)c2c1` [Example 27, 4-[7-(difluoromethyl)-6-(1-methylpyrazol-4-yl)-3,4-dihydro-2H-quinolin-1-yl]-N-methyl-quinoline-6-carboxamide], for which the half-inhibitory concentration (IC50) came out at 34 nM.

Consider `CN1C(=O)C(C)(C)c2ccc(N3CCCc4cc(-c5cnn(C)c5)c(C(F)F)cc43)cc21` [Example 20], for which the IC50 came out at 1750 nM.

As for `CNC(=O)c1ccc2nccc(N3CCCc4cc(-c5cnn(C)c5)ccc43)c2c1` [Example 29], the IC50 was 160 nM.

With `CNC(=O)c1cn(C)nc1C(=O)Nc1cccc2cc(-c3cnn(C)c3)ncc12` [Example 124, N^4,1-dimethyl-N^3-(3-(1-methyl-1H-pyrazol-4-yl)isoquinolin-8-yl)-1H-pyrazole-3,4-dicarboxamide], the half-inhibitory concentration (IC50) turned out to be 14 nM.

Consider `CN1Cc2c(cccc2N2CCCc3cc(-c4cnn(C)c4)c(C(F)F)cc32)NC1=O` [Example 116, 5-(7-(difluoromethyl)-6-(1-methyl-1H-pyrazol-4-yl)-3,4-dihydroquinolin-1(2H)-yl)-3-methyl-3,4-dihydroquinazolin-2(1H)-one], for which the IC50 is 26 nM.

On to `CNC(=O)c1ccc2cncc(N3CCCc4cc(-c5cnn(C)c5)c(C(F)F)cc43)c2c1` [Example 119, 4-(7-(difluoromethyl)-6-(1-methyl-1H-pyrazol-4-yl)-3,4-dihydroquinolin-1(2H)-yl)-N-methylisoquinoline-6-carboxamide], for which the IC50 was determined as 34 nM.

Turning to `CNC(=O)N1CCOc2c(cc(-c3ccccc3C)cc2C(C)C)C1` [Example 110, 9-isopropyl-N-methyl-7-(o-tolyl)-2,3-dihydrobenzo[f][1,4]oxazepine-4(5H)-carboxamide], the IC50 is 201 nM.

In the case of `CCc1cc(-c2ccccc2C)cc2c1OCCN(C(=O)NC)C2` [Example 109, 9-ethyl-N-methyl-7-(o-tolyl)-2,3-dihydrobenzo[f][1,4]oxazepine-4(5H)-carboxamide], the concentration for half-maximal inhibition (IC50) stood at 273 nM.

As for `CN1C(=O)CCc2ccc(N3CCCc4cc(-c5cnn(C)c5)c(C(F)F)cc43)cc21` [Example 19], the IC50 stood at 33 nM.

On to `C#Cc1cc2c(cc1N1CCCc3cc(-c4cnn(C)c4)c(C(F)F)cc31)n(C)c(=O)n2C` [Example 102, 5-(7-(difluoromethyl)-6-(1-methyl-1H-pyrazol-4-yl)-3,4-dihydroquinolin-1(2H)-yl)-6-ethynyl-1,3-dimethyl-1H-benzo[d]imidazol-2(3H)-one], for which the IC50 was determined as 21 nM.

Consider `CNC(=O)c1ccc2c(c1)n(-c1cccc3cc(-c4cnn(C)c4)ncc13)c(=O)n2C` [Example 103, N,1-dimethyl-3-(3-(1-methyl-1H-pyrazol-4-yl)isoquinolin-8-yl)-2-oxo-2,3-dihydro-1H-benzo[d]imidazole-5-carboxamide], for which the IC50 was determined as 222 nM.

As to `CNC(=O)N1CCOc2ccc(-c3c(C)ccc4c3cnn4C)cc2C1` [Example 3, 7-(1,5-dimethylindazol-4-yl)-N-methyl-3,5-dihydro-2H-1,4-benzoxazepine-4-carboxamide], the IC50 came to 57 nM.

As to `CNC(=O)N1CCOc2c(cc(-c3ccccc3C)cc2OC)C1` [Example 111, 9-methoxy-N-methyl-7-(o-tolyl)-2,3-dihydrobenzo[f][1,4]oxazepine-4(5H)-carboxamide], the half-inhibitory concentration (IC50) is 409 nM.

As usually defined, the IC50 is the point on the concentration scale where inhibition reaches its midpoint.

The values above are taken from patent US10696655B2, “Therapeutic compounds and uses thereof” (GENENTECH, INC., priority 2017, dated 2020).
